We go through 33 compounds from patent US8084481B2, “Substituted arylimidazolone and triazolone as inhibitors of vasopressin receptors” (Bayer Pharma Aktiengesellschaft, priority 2006, dated 2011).

Experiment [1] addresses T1, human V1a receptor (Homo sapiens, UniProt P37288).
T1 construct: expressed in transfected cells; host or cells: CHO K1 (ATCC), constitutively expressing a modified aequorin
Description: Cellular in vitro test for determination of the vasopressin receptor activity (aequorin luminescence, CHO cells), human V1a. In kind it is cell-based. Conditions: cell line transfected with the human V1a receptor, antagonism of [Arg8]-vasopressin, read-out: IC50 hV1a. The source says: (§1) B-1. Cellular In Vitro Test for Determination of the Vasopressin Receptor Activity
(§2) The identification of agonists and antagonists of the V1a- and V2-vasopressin receptors in man and the rat and the quantification of the activity of the compounds according to the invention are effected by means of recombinant cell lines. These cells are originally derived from the ovarian epithelial cells of the hamster (Chinese Hamster Ovary, CHO K1, ATCC: American Type Culture Collection, Manassas, Va. 20108, USA). The test cell lines constitutively express a modified form of the calcium-sensitive photoprotein aequorin, which after reconstitution with the cofactor coelenterazine emits light on an increase in the free calcium concentrations [Rizzuto R, Simpson A W, Brini M, Pozzan T, Nature 358, 325-327 (1992)]. In addition, the cells are stably transfected with human or rat V1a- or V2 receptors. In the case of the Gs-coupled V2 receptors, the cells are stably transfected with a further gene which codes for the promiscuous Gα16-Protein [Amatruda T T, Steele D A, Slepak V Z, Simon M I, Proceedings of the National Academy of Science USA 88, 5587-5591 (1991)]. The resulting vasopressin receptor test cells react to stimulation of the recombinantly expressed vasopressin receptors with an intracellular release of calcium ions, which can be quantified by the resulting aequorin luminescence with a suitable luminometer [Milligan G, Marshall F, Rees S, Trends in Pharmacological Sciences 17, 235-237 (1996)].
(§3) On the day before the text, the cells are plated out in culture medium (DMEM, 10% FCS, 2 mM glutamine, 10 mM HEPES) in 384-well microtitre plates and kept in a cell incubator (96% atmospheric humidity, 5% v/v CO2, 37° C.). On the test day, the culture medium is replaced by a Tyrode solution (140 mM NaCl, 5 mM KCl, 1 mM MgCl2, 2 mM CaCl2, 20 mM glucose, 20 mM HEPES) which in addition contains the cofactor coelenterazine (50 μM), and the microtitre plate is then incubated for a further 3-4 hours. The test substances in various concentrations are placed beforehand in the wells of the microtitre plate for 10 to 20 minutes, before the agonist [Arg^8]-vasopressin is added and the resulting light signal immediately measured in the luminometer. The IC50 values are calculated by means of the computer program GraphPad PRISM (Version 3.02).

Experiment [2] concerns the target T2, human V2 receptor (Homo sapiens, UniProt P30518).
T2 construct: expressed in transfected cells; host or cells: CHO K1 (ATCC), constitutively expressing a modified aequorin and stably co-transfected with promiscuous G-alpha-16
As to the kind of experiment: Cellular in vitro test for determination of the vasopressin receptor activity (aequorin luminescence, CHO cells), human V2. In kind it is cell-based. Conditions: cell line transfected with the human V2 receptor, antagonism of [Arg8]-vasopressin, read-out: IC50 hV2.
Text: as §1, §2, §3

T2 sequence (P30518 whole entry): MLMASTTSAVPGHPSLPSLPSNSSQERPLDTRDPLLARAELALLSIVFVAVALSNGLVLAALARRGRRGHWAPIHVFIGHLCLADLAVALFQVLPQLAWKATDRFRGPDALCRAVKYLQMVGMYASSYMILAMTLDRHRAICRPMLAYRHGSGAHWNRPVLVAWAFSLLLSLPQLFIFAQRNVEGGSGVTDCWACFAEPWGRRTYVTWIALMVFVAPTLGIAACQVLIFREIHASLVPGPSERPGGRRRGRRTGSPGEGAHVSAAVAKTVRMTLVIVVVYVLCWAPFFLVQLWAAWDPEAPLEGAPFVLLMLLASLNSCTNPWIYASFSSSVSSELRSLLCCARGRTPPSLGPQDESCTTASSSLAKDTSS
T1 sequence (P37288 whole entry): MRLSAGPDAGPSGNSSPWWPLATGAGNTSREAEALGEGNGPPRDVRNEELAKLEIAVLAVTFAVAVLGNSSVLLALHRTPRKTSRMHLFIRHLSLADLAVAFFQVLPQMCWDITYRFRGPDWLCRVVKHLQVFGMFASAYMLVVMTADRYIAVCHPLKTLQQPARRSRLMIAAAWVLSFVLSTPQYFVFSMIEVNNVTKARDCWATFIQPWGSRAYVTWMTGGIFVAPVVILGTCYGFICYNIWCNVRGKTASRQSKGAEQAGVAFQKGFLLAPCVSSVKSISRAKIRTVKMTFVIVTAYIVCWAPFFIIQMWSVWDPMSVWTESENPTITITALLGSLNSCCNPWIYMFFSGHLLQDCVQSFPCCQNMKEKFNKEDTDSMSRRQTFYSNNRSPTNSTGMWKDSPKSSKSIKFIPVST

For `O=C(Cn1nc(-c2ccc(Cl)cc2)n(Cc2ccccc2F)c1=O)NCc1cccc(C(F)(F)F)c1Cl` [Example 296], the IC50 (in general, the concentration that inhibits the measured activity by half) in experiment [1] is 54 nM; in experiment [2], 9 nM.
For `CCn1c(-c2ccc(Cl)cc2)cn(CC(=O)NC(C)c2cccc(C(F)(F)F)c2)c1=O` (stereo not drawn) [Example 209], the IC50 is 140 nM in experiment [1] and 260 nM in experiment [2].
Consider `O=C(Cn1nc(-c2ccc(Cl)cc2)n(C2CC2)c1=O)NCC1(c2ccccc2F)CCCC1` [Example 305], for which the IC50 in experiment [1] turned out to be 93 nM; in experiment [2] it was 784 nM.
The matching figures for `CC(C)(NC(=O)Cn1cc(-c2ccc(Cl)cc2)n(CC(O)C(F)(F)F)c1=O)c1cccc(C(F)(F)F)c1` (single isomer, unassigned) [Example 501, 2-[4-(4-chlorophenyl)-2-oxo-3-(3,3,3-trifluoro-2-hydroxypropyl)-2,3-dihydro-1H-imidazol-1-yl]-N-{1-methyl-1-[3-(trifluoromethyl)phenyl]ethyl}-acetamide]: 12 nM and 3 nM.
The matching figures for `CC(C)(NC(=O)Cn1nc(-c2ccc(Cl)cc2)n(CC(N)=O)c1=O)c1cccc(C(F)(F)F)c1` [Example 476]: 1230 nM and 94 nM.
Regarding `CN(C)C(CNC(=O)Cn1nc(-c2ccc(Cl)cc2)n(Cc2ccccc2F)c1=O)c1ccccc1Cl` (stereo not drawn) [Example 265], the half-maximal inhibitory concentration (IC50) in experiment [1] was determined as 28 nM; in experiment [2], 749 nM.
In the case of `CC(C)Cn1c(-c2ccc(Cl)s2)nn(CC(=O)NC(C)(C)c2cccc(C(F)(F)F)c2)c1=O` [Example 84], the IC50 was 320 nM in experiment [1] and 8 nM in experiment [2].
For the compound `Cc1cc(Cl)ccc1-c1nn(CC(=O)NCCc2ccccc2C(F)(F)F)c(=O)n1Cc1ccccc1F` [Example 241], the IC50 was found to be 76 nM in experiment [1] and 271 nM in experiment [2].
On to `COCCn1c(-c2ccc(Cl)cc2)nn(CC(=O)NCC2(c3ccccc3F)CCCC2)c1=O` [Example 494], for which the IC50 in experiment [1] stood at 49 nM; in experiment [2], 257 nM.
For `O=C(Cn1nc(-c2ccc(Cl)cc2)n(Cc2ccccc2F)c1=O)NCc1c(C(F)(F)F)cccc1C(F)(F)F` [Example 288], the IC50 in experiment [1] was determined as 761 nM; in experiment [2], 666 nM.
The matching figures for `COc1cc(Cl)ccc1-c1nn(CC(=O)NC(C)(C)c2cccc(C(F)(F)F)c2)c(=O)n1Cc1cccc(F)c1` [Example 262]: 157 nM and 5 nM.
`COc1ccc(Cn2c(-c3ccc(Cl)cc3)nn(CC(=O)NCc3cccc(C(F)(F)F)c3)c2=O)cc1` [Example 153, 2-[3-(4-chlorophenyl)-4-(4-methoxyphenylmethyl)-5-oxo-4,5-dihydro-1H-1,2,4-triazol-1-yl]-N-[3-(trifluoromethyl)phenylmethyl]acetamide]: the IC50 in experiment [1] came out at 42 nM; in experiment [2], 12 nM.
The matching figures for `O=C(Cn1nc(-c2ccc(Cl)cc2)n(CC(O)C(F)(F)F)c1=O)NCC(F)(F)c1cccc(C(F)(F)F)c1` (stereo not drawn) [Example 364]: 22 nM and 8 nM.
In the same order, the values of `CC(C)(NC(=O)Cn1nc(-c2ccc(Cl)cc2)n(CCN2CCOCC2)c1=O)c1cccc(C(F)(F)F)c1` [Example 462, 2-[3-(4-chlorophenyl)-4-(2-morpholin-4-ylethyl)-5-oxo-4,5-dihydro-1H-1,2,4-triazol-1-yl]-N-{1-methyl-1-[3-(trifluoromethyl)phenyl]ethyl}-acetamide] are 373 nM and 46 nM.
In the case of `C[C@H](NC(=O)Cn1nc(-c2ccc(Cl)s2)n(Cc2ccccc2F)c1=O)c1cccc(C(F)(F)F)c1` [Example 251], the IC50 was determined as 37 nM in experiment [1] and 13 nM in experiment [2].
Take `O=C(Cn1nc(-c2ccc(Cl)cc2)n(Cc2ccccc2F)c1=O)NC1(Cc2ccccc2C(F)(F)F)CC1` [Example 284]: the IC50 was 9 nM in experiment [1] and 191 nM in experiment [2].
The matching figures for `CC(C)(CNC(=O)Cn1nc(-c2ccc(Cl)cc2)n(C2CC2)c1=O)c1ccccc1C(F)(F)F` [Example 313]: 3 nM and 1020 nM.
In the case of `O=C(Cn1nc(-c2ccc(Cl)cc2)n(Cc2ccccc2F)c1=O)NCc1cccc(C(F)(F)F)c1` [Example 145], the concentration for half-maximal inhibition (IC50) in experiment [1] was 95 nM; in experiment [2], 7 nM.
With `CC(NC(=O)Cn1nc(-c2ccc(Cl)s2)n(Cc2ccccc2F)c1=O)c1nccc2ccccc12` (stereo not drawn) [Example 252], the results for the IC50 in experiment [1] and in experiment [2] were 18 nM and 447 nM, respectively.
Turning to `O=C(Cn1cc(-c2ccc(Cl)cc2)n(CC2CC2)c1=O)NCCc1ccccc1C(F)(F)F` [Example 508], the IC50 in experiment [1] was found to be 5 nM; in experiment [2] it was 336 nM.
The matching figures for `CCC(O)Cn1c(-c2ccc(Cl)cc2)nn(CC(=O)NC(C)(C)c2cccc(C(F)(F)F)c2)c1=O` (single isomer, unassigned) [Example 485, 2-[3-(4-chlorophenyl)-5-oxo-4-(2-hydroxybutyl)-4,5-dihydro-1H-1,2,4-triazol-1-yl]-N-{1-methyl-1-[3-(trifluoromethyl)phenyl]ethyl}-acetamide]: 12 nM and 2 nM.
In the same order, the values of `CC(C)(NC(=O)Cn1nc(-c2ccc(F)c(F)c2)n(Cc2ccccc2F)c1=O)c1cccc(C(F)(F)F)c1` [Example 221] are 165 nM and 30 nM.
On to `CCOC(=O)Cn1c(-c2ccc(Cl)cc2)nn(CC(=O)NCCc2ccccc2C(F)(F)F)c1=O` [Example 439], for which the IC50 in experiment [1] came to 58 nM; in experiment [2] it was 77 nM.
In the case of `O=C(Cn1nc(-c2ccc(Cl)cc2)n(C2CC2)c1=O)NC1(Cc2ccccc2C(F)(F)F)CC1` [Example 320], the values for the IC50 in experiment [1] and in experiment [2] were 24 nM and 1520 nM, respectively.
As for `CC(C)(NC(=O)Cn1nc(-c2ccc(Cl)cc2)n(CC(O)C(F)(F)F)c1=O)c1cccc(C(F)(F)F)c1` (single isomer, unassigned) [Example 451, 2-[3-(4-chlorophenyl)-5-oxo-4-(3,3,3-trifluoro-2-hydroxypropyl)-4,5-dihydro-1H-1,2,4-triazol-1-yl]-N-{1-methyl-1-[3-(trifluoromethyl)phenyl]ethyl}-acetamide], the figures for the IC50 in experiment [1] and in experiment [2] were 12 nM and 2 nM, respectively.
On to `CCn1c(-c2ccc(Cl)cc2)nn(CC(=O)NCc2ccccc2C(F)(F)F)c1=O` [Example 101], for which the figures for the IC50 in experiment [1] and in experiment [2] were 94 nM and 1100 nM, respectively.
For the compound `C=C(C)Cn1c(-c2ccc(Cl)cc2)nn(CC(=O)NC(C)(C)c2cccc(C(F)(F)F)c2)c1=O` [Example 423, 2-[3-(4-chlorophenyl)-4-(2-methylprop-2-en-1-yl)-5-oxo-4,5-dihydro-1H-1,2,4-triazol-1-yl]-N-1-methyl-1-[3-(trifluoromethyl)phenyl]ethyl-acetamide], the IC50 was 157 nM in experiment [1] and 15 nM in experiment [2].
On to `O=C(Cn1nc(-c2ccc(Cl)cc2)n(CC2CCCCC2)c1=O)NCc1cccc(C(F)(F)F)c1` [Example 59], for which the values for the IC50 in experiment [1] and in experiment [2] were 1100 nM and 9 nM, respectively.
The matching figures for `C#CCn1c(-c2ccc(Cl)cc2)nn(CC(=O)NCCc2ccccc2C(F)(F)F)c1=O` [Example 421]: 32 nM and 88 nM.
In the same order, the values of `CC(=O)Cn1c(-c2ccc(Cl)cc2)nn(CC(=O)NCc2cccc(C(F)(F)F)c2)c1=O` [Example 415] are 870 nM and 26 nM.
For `O=C(Cn1nc(-c2ccc(Cl)cc2)n(CC(O)C(F)(F)F)c1=O)NC(C(=O)NC1CC1)c1cccc(C(F)(F)F)c1` (stereo not drawn) [Example 510, 2-([3-(4-chlorophenyl)-5-oxo-4-(3,3,3-trifluoro-2-hydroxypropyl)-4,5-dihydro-1H-1,2,4-triazol-1-yl]acetylamino)-N-cyclopropyl-2-[3-(trifluoromethyl)phenyl]-acetamide], the IC50 in experiment [1] stood at 4 nM; in experiment [2], 7 nM.
`O=C(Cn1nc(-c2ccc(Cl)cc2)n(CC(O)C(F)(F)F)c1=O)N[C@@H]1C[C@@H]1c1cccc(C(F)(F)F)c1` (mixture of isomers) [Example 357, 2-[3-(4-chlorophenyl)-5-oxo-4-(3,3,3-trifluoro-2-hydroxypropyl)-4,5-dihydro-1H-1,2,4-triazol-1-yl]-N-{(1RS,2RS)-[2-(3-trifluoromethyl-phenyl)cyclopropyl]}-acetamide]: the IC50 was found to be 338 nM in experiment [1] and 5 nM in experiment [2].
As for `COC(=O)[C@@H](Cc1ccccc1C(F)(F)F)NC(=O)Cn1nc(-c2ccc(Cl)cc2)n(C2CC2)c1=O` [Example 321], the IC50 in experiment [1] was 50 nM; in experiment [2] it was 510 nM.
